Data taken from patent US12077503B2, “Substituted cyclic amides and their use as herbicides” (FMC CORPORATION, priority 2015, dated 2024).

Legend:
Format in all cases: in vivo
Kochia (Kochia scoparia) [1] = assay: Test A preemergence; conditions: for Plant response rating, Kochia: 125 g ai/ha; for Kochia plant response rating (0 to 100 scale, 0 is no effect, 100 is complete control): 500 g ai/ha, visual injury approx. 10 d
Summary of the method: (§1)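 Preemergence directed soil spray on seeded pots, or postemergence application to plants 2–10 cm, one- to two-leaf. Solvent mixture non-phytotoxic, with surfactant. Scored ~10 d later, visually, 0–100 vs untreated.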

[2] = tested on: barnyardgrass (Echinochloa crus-galli); assay: Test A preemergence; conditions: for Plant response rating, Barnyardgrass: 125 g ai/ha; for Barnyardgrass plant response rating (0 to 100 scale, 0 is no effect, 100 is complete control): 500 g ai/ha, visual injury approx. 10 d
Summary of the method: as §1

[3] = tested on: giant foxtail (Setaria faberii); assay: Test A preemergence; conditions: for Plant response rating, Foxtail, Giant: 125 g ai/ha; for Foxtail, Giant plant response rating (0 to 100 scale, 0 is no effect, 100 is complete control): 500 g ai/ha, visual injury approx. 10 d
Summary of the method: as §1

[4] = tested on: pigweed (Amaranthus retroflexus); assay: Test A preemergence; conditions: for Plant response rating, Pigweed: 125 g ai/ha; for Pigweed plant response rating (0 to 100 scale, 0 is no effect, 100 is complete control): 500 g ai/ha, visual injury approx. 10 d
[5] = tested on: ragweed (common ragweed, Ambrosia elatior); assay: Test A preemergence; conditions: for Plant response rating, Ragweed: 125 g ai/ha; for Ragweed plant response rating (0 to 100 scale, 0 is no effect, 100 is complete control): 500 g ai/ha, visual injury approx. 10 d
Summary of the method: as §1

[6] = tested on: ryegrass, Italian (Italian ryegrass, Lolium multiflorum); assay: Test A preemergence; conditions: for Plant response rating, Ryegrass, Italian: 125 g ai/ha; for Ryegrass, Italian plant response rating (0 to 100 scale, 0 is no effect, 100 is complete control): 500 g ai/ha, visual injury approx. 10 d
Summary of the method: as §1

[7] = tested on: Galium (catchweed bedstraw, Galium aparine); assay: Test A postemergence; conditions: for Galium plant response rating: 125 g ai/ha, visual injury rating on 0 to 100 scale (0 no effect, 100 complete control), approx. 10 d; for Plant response rating, Galium: 500 g ai/ha
Summary of the method: as §1

Kochia (Kochia scoparia) [8] = assay: Test A postemergence; conditions: for Kochia plant response rating: 125 g ai/ha, visual injury rating on 0 to 100 scale (0 no effect, 100 complete control), approx. 10 d; for Plant response rating, Kochia: 500 g ai/ha
Summary of the method: as §1

[9] = tested on: barnyardgrass (Echinochloa crus-galli); assay: Test A postemergence; conditions: for Barnyardgrass plant response rating: 125 g ai/ha, visual injury rating on 0 to 100 scale (0 no effect, 100 complete control), approx. 10 d; for Plant response rating, Barnyardgrass: 500 g ai/ha
Summary of the method: as §1

[10] = tested on: blackgrass (Alopecurus myosuroides); assay: Test A postemergence; conditions: for Blackgrass plant response rating: 125 g ai/ha, visual injury rating on 0 to 100 scale (0 no effect, 100 complete control), approx. 10 d; for Plant response rating, Blackgrass: 500 g ai/ha
Summary of the method: as §1

corn (Zea mays) = assay: Test A postemergence; conditions: for Corn plant response rating: 125 g ai/ha, visual injury rating on 0 to 100 scale (0 no effect, 100 complete control), approx. 10 d; for Plant response rating, Corn: 500 g ai/ha
Summary of the method: as §1

[11] = tested on: giant foxtail (Setaria faberii); assay: Test A postemergence; conditions: for Foxtail, Giant plant response rating: 125 g ai/ha, visual injury rating on 0 to 100 scale (0 no effect, 100 complete control), approx. 10 d; for Plant response rating, Foxtail, Giant: 500 g ai/ha
Summary of the method: as §1

[12] = tested on: pigweed (Amaranthus retroflexus); assay: Test A postemergence; conditions: for Pigweed plant response rating: 125 g ai/ha, visual injury rating on 0 to 100 scale (0 no effect, 100 complete control), approx. 10 d; for Plant response rating, Pigweed: 500 g ai/ha
Summary of the method: as §1

[13] = tested on: ragweed (common ragweed, Ambrosia elatior); assay: Test A postemergence; conditions: for Ragweed plant response rating: 125 g ai/ha, visual injury rating on 0 to 100 scale (0 no effect, 100 complete control), approx. 10 d; for Plant response rating, Ragweed: 500 g ai/ha
Summary of the method: as §1

[14] = tested on: ryegrass, Italian (Italian ryegrass, Lolium multiflorum); assay: Test A postemergence; conditions: for Ryegrass, Italian plant response rating: 125 g ai/ha, visual injury rating on 0 to 100 scale (0 no effect, 100 complete control), approx. 10 d; for Plant response rating, Ryegrass, Italian: 500 g ai/ha
Summary of the method: as §1

[15] = tested on: wheat (Triticum aestivum); assay: Test A postemergence; conditions: for Wheat plant response rating: 125 g ai/ha, visual injury rating on 0 to 100 scale (0 no effect, 100 complete control), approx. 10 d; for Plant response rating, Wheat: 500 g ai/ha
Summary of the method: as §1

[16] = tested on: barnyardgrass (Echinochloa crus-galli); assay: Test B flooded paddy test; conditions: Flood, 250 g ai/ha; 0 to 100 scale where 0 is no effect and 100 is complete control; 13 to 15 d
Summary of the method: (§2)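 2-leaf plants; pots flooded 3 cm over soil; cpd added to paddy water; depth held; greenhouse 13–15 d; visual rating vs controls, 0 = no effect, 100 = complete control.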

[17] = tested on: ducksalad (Heteranthera limosa); assay: Test B flooded paddy test; conditions: Flood, 250 g ai/ha; 0 to 100 scale where 0 is no effect and 100 is complete control; 13 to 15 d
Summary of the method: as §2

rice (Oryra sativa) = assay: Test B flooded paddy test; conditions: Flood, 250 g ai/ha; 0 to 100 scale where 0 is no effect and 100 is complete control; 13 to 15 d
Summary of the method: as §2

[18] = tested on: sedge, umbrella (small-flower umbrella sedge, Cyperus difformis); assay: Test B flooded paddy test; conditions: Flood, 250 g ai/ha; 0 to 100 scale where 0 is no effect and 100 is complete control; 13 to 15 d
Summary of the method: as §2

[19] = Preemergence, visual injury after approximately 10 d, 0 to 100 scale where 0 is no effect and 100 is complete control
[20] = Postemergence, 0 to 100 scale where 0 is no effect and 100 is complete control
[21] = preemergence, 0 to 100 scale (0 no effect, 100 complete control)
[22] = postemergence, 0 to 100 scale, 0 no effect, 100 complete control

Compound | Kochia plant response rating (0 to 100 scale, 0 is no effect, 100 is complete control) (Kochia (Kochia scoparia) [1]; Preemergence) | Barnyardgrass plant response rating (0 to 100 scale, 0 is no effect, 100 is complete control) ([2]; Preemergence) | Foxtail, Giant plant response rating (0 to 100 scale, 0 is no effect, 100 is complete control) ([3]; Preemergence) | Pigweed plant response rating (0 to 100 scale, 0 is no effect, 100 is complete control) ([4]; Preemergence) | Ragweed plant response rating (0 to 100 scale, 0 is no effect, 100 is complete control) ([5]; Preemergence) | Ryegrass, Italian plant response rating (0 to 100 scale, 0 is no effect, 100 is complete control) ([6]; Preemergence) | Galium plant response rating ([7]; postemergence) | Kochia plant response rating (Kochia (Kochia scoparia) [8]; postemergence) | Barnyardgrass plant response rating ([9]; postemergence) | Blackgrass plant response rating ([10]; postemergence) | Corn plant response rating (corn (Zea mays); postemergence) | Foxtail, Giant plant response rating ([11]; postemergence) | Pigweed plant response rating ([12]; postemergence) | Ragweed plant response rating ([13]; postemergence) | Ryegrass, Italian plant response rating ([14]; postemergence) | Wheat plant response rating ([15]; postemergence) | Plant response rating, Barnyardgrass [16] | Plant response rating, Ducksalad [17] | Plant response rating, Rice (rice (Oryra sativa)) | Plant response rating, Sedge, Umbrella [18] | also measured
CN1CC(c2cccc(Br)c2)C(C(=O)Nc2cccc(F)c2F)C1=O (stereo not drawn) [Compound 520] | 70 | 90 | 90 | 80 | 50 | 50 | 60 | 60 | 90 | 70 | 60 | 80 | 40 | 30 | 40 | 50 | 65 | 100 | 0 | 0 | Plant response rating, Kochia (Kochia (Kochia scoparia) [1]; [19]): 50; Plant response rating, Barnyardgrass [2, 19]: 90; Plant response rating, Foxtail, Giant [3, 19]: 90; Plant response rating, Pigweed [4, 19]: 30; Plant response rating, Ragweed [5, 19]: 0; Plant response rating, Ryegrass, Italian [6, 19]: 30; Plant response rating, Galium [7, 20]: 60; Plant response rating, Kochia (Kochia (Kochia scoparia) [8]; [20]): 70; Plant response rating, Barnyardgrass [9, 20]: 90; Plant response rating, Blackgrass [10, 20]: 70; Plant response rating, Corn (corn (Zea mays); [20]): 70; Plant response rating, Foxtail, Giant [11, 20]: 80; Plant response rating, Pigweed [12, 20]: 50; Plant response rating, Ragweed [13, 20]: 30; Plant response rating, Ryegrass, Italian [14, 20]: 80; Plant response rating, Wheat [15, 20]: 70
Cc1ccc(C2CNC(=O)C2C(=O)Nc2ccc(F)c(C)c2F)cc1F (stereo not drawn) [Compound 462] | 70 | 90 | 90 | 0 | 50 | 0 | 0 | 0 | 70 | 20 | 0 | 60 | 0 | 0 | 0 | 0 | 40 | 85 | 0 | 0 | Plant response rating, Kochia (Kochia (Kochia scoparia) [1]; [21]): 30; Plant response rating, Barnyardgrass [2, 21]: 80; Plant response rating, Foxtail, Giant [3, 21]: 80; Plant response rating, Pigweed [4, 21]: 0; Plant response rating, Ragweed [5, 21]: 10; Plant response rating, Ryegrass, Italian [6, 21]: 0; Plant response rating, Galium [7, 22]: 10; Plant response rating, Kochia (Kochia (Kochia scoparia) [8]; [22]): 0; Plant response rating, Barnyardgrass [9, 22]: 80; Plant response rating, Blackgrass [10, 22]: 40; Plant response rating, Corn (corn (Zea mays); [22]): 0; Plant response rating, Foxtail, Giant [11, 22]: 70; Plant response rating, Pigweed [12, 22]: 0; Plant response rating, Ragweed [13, 22]: 0; Plant response rating, Ryegrass, Italian [14, 22]: 0; Plant response rating, Wheat [15, 22]: 0
